# Measurements published in ChEMBL document CHEMBL5030527, “Novel carbohydrate-based sulfonamide derivatives as selective carbonic anhydrase II inhibitors: Synthesis, biological and molecular docking analysis” (Bioorg Med Chem Lett, 2021).
# What was measured:
# [1] = Cytotoxicity against HCEC assessed as reduction in cell viability at 2% concentration by MTT assay relative to control; format: functional, Homo sapiens
# [2] = Solubility of the compound; format: physicochemical
# Carbonic anhydrase 9 = Carbonic anhydrase 9 (Homo sapiens, UniProt Q16790); assay: Inhibition of recombinant human carbonic anhydrase 9 using 4-nitrophenylacetate as substrate
# [3] = Cytotoxicity against HCEC assessed as […] cell viability at 1% concentration by MTT assay relative to control; format: functional, Homo sapiens
Compound,Activity [1],solubility [2],IC50 (Carbonic anhydrase 9),Activity [3]
CC(=O)N[C@@H]1O[C@H](CO)[C@@H](O)[C@H](O)[C@H]1NC(=O)c1ccc(S(N)(=O)=O)cc1,77%,2.5%,227 nM,80%
CCCO[C@@H]1O[C@H](CO)[C@@H](O)[C@H](O)[C@H]1NC(=O)c1ccc(S(N)(=O)=O)cc1,77%,2%,241 nM,80%
CO[C@@H]1O[C@H](CO)[C@@H](O)[C@H](O)[C@H]1NC(=O)c1ccc(S(N)(=O)=O)cc1,77%,2.5%,90 nM,80%
CCO[C@@H]1O[C@H](CO)[C@@H](O)[C@H](O)[C@H]1NC(=O)c1ccc(S(N)(=O)=O)cc1,77%,2.3%,152 nM,80%
CC(C)O[C@@H]1O[C@H](CO)[C@@H](O)[C@H](O)[C@H]1NC(=O)c1ccc(S(N)(=O)=O)cc1,77%,2%,142 nM,80%
CCC(=O)N[C@@H]1O[C@H](CO)[C@@H](O)[C@H](O)[C@H]1NC(=O)c1ccc(S(N)(=O)=O)cc1,77%,2.5%,276 nM,80%
CC(=O)Nc1nnc(S(N)(=O)=O)s1 [ACETAZOLAMIDE],,0.21%,,
CCN[C@H]1CN(CCCOC)S(=O)(=O)c2sc(S(N)(=O)=O)cc21 [BRINZOLAMIDE],,0.05%,,
NS(=O)(=O)c1ccc(C(=O)O)cc1 [CARZENIDE],,,24000 nM,
CCN[C@H]1C[C@H](C)S(=O)(=O)c2sc(S(N)(=O)=O)cc21 [DORZOLAMIDE],,0.67%,,
